Experimental data: US6331555A, “Treatment of platelet derived growth factor related disorders such as cancers” (priority 1999, dated 2001)
Where two headings read alike, the source gives them in different places.

Key:
PDGF-R = test: PDGF-BB-stimulated PDGF-R autophosphorylation, C6 cells, western blot; assay type: cell-based, rat; parameters: PDGF stimulated receptor phosphorylation: dose or concentration left out as unconfirmed
Method: For western blotting, cells were plated in 2 mL growth medium into 6-well dishes (500,000 cells per well) and allowed to attach overnight. The medium was replaced with 2 mL MCDB 105 (UCSF Cell Culture Facility) supplemented with 1% FBS. The plates were then incubated overnight at 37° C., ambient CO2. […] After a 7 min incubation at room temperature with ligand, the plates were put on ice and washed three times with 1 mL ice-cold PBS plus 1 mM orthovanadate. Lysis was achieved by pipetting cells in 0.5 mL of buffer containing 50 mM Tris, pH 7.4, 10% glycerol, 1% NP-40, 2 mM EDTA, 1 mM sodium vanadate (Na3 VO4), 10 mM pyrophosphate, 1 mM PMSF, 10 mg/mL aprotinin, 10 mg/mL leupeptin. […] The integrity of the protein-to-membrane transfer was determined by staining with 1% Ponceau S in 5% acetic acid for 5 min. […] Phosphotyresine was detected by incubating the membrane (1 hr at room temperature) with an anti-phosphotyosine antiserum diluted in blocking buffer at 1:3000. […]
Proteins were then separated by SDS-polyacrylamide gel electrophoresis (PAGE). […] The level of phosphorylated tyrosine was determined by quantitating the amount of bound anti-phosphotyrosine. Quantitation was carried out by peak area integration using a Molecular Dynamics Computing Densitometer (Model 300S), and Image Quant v3.0 software (Molecule Dynamics). […]

[1] = tested on: NIH3T3 cells overexpressing the human EGF receptor; test: EGF-stimulated mitosis, flow cytometry; assay type: cell-based, mouse; details: 100 mM A10
C6 cells = test: Intracerebral C6 tumor, athymic mice, survival; assay type: in vivo, rat; details: IC C6, athymic mice
Method: FIG. 4. In two separate experiments, C6 cells (1×10^5 cells in 4 μL) were implanted into the cerebrum of BALB/c, nu/nu mice. […] V=vehicle control. n=8 to 12 (Expt #1), or 5 (Expt #2) animals per group. * P<0.00001; ** P<0.002; *** P<0.02 compared to vehicle control.
For the mouse IC model, rat C6 glioma cells were harvested and suspended in sterile PBS at a concentration of 2.5×10^7 cells/mL and placed on ice. Cells were implanted into BALB/c, nu/nu mice in the following manner: the frontoparietal scalps of mice were shaved with animal clippers if necessary before swabbing with 70% ethanol. Animals were anesthetized with isofluorane and the needle was inserted through the skull into the left hemisphere of the brain. Cells were dispensed from Hamilton Gas-tight Syringes using 30 gauge 1/2 inch needles fitted with sleeves that allowed only a 3 mm penetration. A repeater dispenser was used for accurate delivery of 4 μL of cell suspension.

[2] = mouse, in vivo
Method: (§1) Plasma was prepared and frozen in liquid nitrogen. Tissues and organs were resected and immediately frozen in liquid nitrogen. After the addition of an internal standard, plasma samples were acidified with HCl and extracted with acetonitrile. The acetonitrile fraction was evaporated to dryness in a vacuum centrifuge with heating and redissolved in methanol. Tissue and organ samples were homogenized according to the weight ratio of 1:5 (w:v) in 50 mM Tris-HCl, pH 7.4, at 20,000 rev/min, using a tissue homogenizer (Brinkmann Polytron Model PT3000). After the addition of an internal standard, the homogenate was acidified with HCl and then extracted with acetonitrile. The acetonitrile fraction was then extracted with an equal volume of diethyl ether. The ether fraction was evaporated to dryness in a vacuum centrifuge with heating and redissolved in methanol.
(§2) Samples for HPLC analysis were injected onto a Hewlett Packard Hypersil 5-μm C18 cartridge column (100×4.6 mm). The mobile phase was methanol:35 mM KH2 PO4 (pH 4.5) 55:45 containing 4 mM triethylamine. The flow rate was 1.2 mL/min. The compounds were monitored by UV absorption at 254 nm using a Hewlett-Packard diode-array detector (HP Model 1090). Plasma and tissue concentrations were determined from standard curves using peak area for quantitation. […] The internal standard used was 5-methyl-pyrazole-4-carboxylic acid-(4-trifluoromethyl)-anilide.
(§3) Table XXII. […] Plasma and brain samples were prepared and analyzed by HPLC as described in Appendix 6. All results were calculated by the method of internal standardization. NT= not tested, ND= not detected.

in vivo = test: in vivo; parameters: species or system rat
Method: as §1, §2, §3

[3] = Effects of A10 on body weight and organs; assay type: in vivo, mouse; details: 20 mg/kg/day, 100 day period
Method: Vehicle control animals received IP administration of 100 μL PBTE:D5W (1:1, v:v) every day for 101 days, and untreated control animals received no treatments. There were eight animals in each group. Weights were measured on day 0 (one day prior to drug administration) and two times/week until experiment termination. The percent weight change was calculated as mean weight at each determination as compared to the mean weight on day 0.
However, after several weeks, the animals gained weight at a rate similar to untreated or vehicle-treated animals.

Cc1oncc1C(=O)Nc1ccc(C(F)(F)F)cc1 [Compound A10, 5-methylisoxazole-4 carboxylic acid-(4-trifluromethyl)-anilide]
reduction of PDGF-R phosphorylation (PDGF-R; 200 mM A10, 20 ng/ml PDGF-BB): reduced PDGF-R phosphorylation below that occurring in the absence of PDGF-BB stimulation | PDGF stimulated receptor phosphorylation (PDGF-R; increasing concentrations (50, 100)): reduced PDGF stimulated receptor phosphorylation | EGF-stimulated mitosis [1]: not able to inhibit EGF-stimulated mitosis | average survival time (C6 cells): significantly increased compared to controls | plasma concentration, single dose ([2]; 20 mg/kg): not detected | plasma concentration, single dose ([2]; 40 mg/kg): not detected | time detected in plasma (in vivo; IP A10 80 mg/kg single dose): up to 8 hr | time by which A10 converted to B11 (in vivo; IP A10 80 mg/kg, first time point analyzed): ≤ 2 h | Cmax (in vivo; rat, plasma, ip, 80 mg/kg): 5000 ng/mL | mortality [3]: no mortality was observed
